Legend:
E. coli cells = assay: SYTOX Green uptake; conditions: 5 μM peptide; for SYTOX Green influx into E. coli (in words): E. coli cells in PBS
[1] = Leakage of terbium from lipid vesicles; conditions: peptide:lipid 1:100, method as in earlier work
[2] = tested on: E. coli cytoplasmic membrane; assay: Membrane depolarization, diSC3; assay type: cell-based, Escherichia coli; conditions: E. coli 2 × 10^7 cells/mL, 50 nM diSC3(5)
C. neoformans cells = assay: SYTOX Green uptake; assay type: cell-based, Cryptococcus neoformans; conditions: 5 μM peptide, 2 × 10^7 cells/mL in PBS, 1 μM SYTOX Green

Structure (SMILES): CC[C@H](C)[C@H](N)C(=O)N[C@@H](CC(C)C)C(=O)N1CCC[C@H]1C(=O)N[C@@H](Cc1c[nH]c2ccccc12)C(=O)N[C@@H](CCCCN)C(=O)N[C@@H](Cc1c[nH]c2ccccc12)C(=O)N1CCC[C@H]1C(=O)N[C@@H](Cc1c[nH]c2ccccc12)C(=O)N[C@@H](Cc1c[nH]c2ccccc12)C(=O)N1CCC[C@H]1C(=O)N[C@@H](Cc1c[nH]c2ccccc12)C(=O)N[C@@H](CCCNC(=N)N)C(=O)N[C@@H](CCCNC(=N)N)C(N)=O [Indolicidin]
- SYTOX Green influx into E. coli (in words) (E. coli cells): only a very small amount of dye influx
- % of Tb leakage, P:L 1:100 [1]: 8%

Structure (SMILES): CC[C@H](C)[C@H](NC(=O)CN)C(=O)NCC(=O)N[C@@H](C)C(=O)N[C@H](C(=O)N[C@@H](CC(C)C)C(=O)N[C@@H](CCCCN)C(=O)N[C@H](C(=O)N[C@@H](CC(C)C)C(=O)N[C@H](C(=O)N[C@H](C(=O)NCC(=O)N[C@@H](CC(C)C)C(=O)N1CCC[C@H]1C(=O)N[C@@H](C)C(=O)N[C@@H](CC(C)C)C(=O)N[C@H](C(=O)N[C@@H](CO)C(=O)N[C@@H](Cc1c[nH]c2ccccc12)C(=O)N[C@H](C(=O)N[C@@H](CCCCN)C(=O)N[C@@H](CCCNC(=N)N)C(=O)N[C@@H](CCCCN)C(=O)N[C@@H](CCCNC(=N)N)C(=O)N[C@@H](CCC(N)=O)C(=O)N[C@@H](CCC(N)=O)C(N)=O)[C@@H](C)CC)[C@@H](C)CC)[C@@H](C)O)[C@@H](C)O)C(C)C)C(C)C [Melittin]
- time to 50% of the maximum SYTOX Green uptake (E. coli cells; E. coli in PBS): about 15 minutes
- time to complete SYTOX Green leakage (E. coli cells; E. coli in PBS): ≤ 25 min
- % of Tb leakage, P:L 1:100 [1]: 100%
- time of membrane potential dissipation ([2]; 5 μM peptide, 25°C): less than 30 seconds
- permeabilization of fungal cells, SYTOX Green (in words) (C. neoformans cells): completely permeabilizes the fungal cells in just a few minutes

Structure (SMILES): CC1(C)S[C@@H]2[C@H](NC(=O)[C@H](N)c3ccccc3)C(=O)N2[C@H]1C(=O)O [ampicillin]
- SYTOX Green influx into E. coli (in words) (E. coli cells): no effect

Structure (SMILES): CC(C)[C@@H]1NC(=O)[C@H](C)OC(=O)[C@@H](C(C)C)NC(=O)[C@@H](C(C)C)OC(=O)[C@H](C(C)C)NC(=O)[C@H](C)OC(=O)[C@@H](C(C)C)NC(=O)[C@@H](C(C)C)OC(=O)[C@H](C(C)C)NC(=O)[C@H](C)OC(=O)[C@@H](C(C)C)NC(=O)[C@@H](C(C)C)OC1=O [valinomycin]
- collapse of the membrane potential (in words) ([2]; 40 μM): Complete collapse of the membrane potential

Source: publication PMC2935846 (Journal of the American Chemical Society, 2009)
